Measurements: PMC4141155 (2014)
Values joined by “and” are separate entries in the source; they are usually repeats but may differ in a detail not shown here. Equal entries are not always repeated.

What was measured:
[1] = tested on: d[(TTAGGG)4TTA] (DNA, G4) TTAGGGTTAGGGTTAGGGTTAGGGTTA; experiment: ESI-TOF-MS; conditions: NH4+ 50 mM (ammonium acetate), pH 7.6, 50 % methanol
[2] = tested on: r[(UUAGGG)4UUA] (RNA, G4) UUAGGGUUAGGGUUAGGGUUAGGGUUA; experiment: ESI-TOF-MS; conditions: NH4+ 50 mM (ammonium acetate); pH 7.6, 50 % methanol, equimolar 5 or 10 μM; first of two stepwise constants
[3] = tested on: dAGGG(TTAGGG)3 (DNA, G4) AGGGTTAGGGTTAGGGTTAGGG; experiment: UV melting at 295 nm; conditions: K+ 100 mM (KCl); 25 mM Tris–HCl pH 7.4; 5 μM DNA, 10 μM ligand; 2.27 °C higher than tetrachloride
[4] = tested on: d[(TTAGGG)4TTA] (DNA, G4) TTAGGGTTAGGGTTAGGGTTAGGGTTA; experiment: ESI-TOF-MS fraction of bound G-quadruplex; conditions: NH4+ 50 mM (ammonium acetate); pH 7.6, 50 % methanol; equimolar 10 μM

SMILES	K 1 ([1]; equimolar 5 or 10 μM, first of two stepwise constants)	K 1 (column head misprinted K 2) [2]	binding [3]	RBA [4]	binding ([1]; tosyl adducts seen in equimolar mixture with TMPyP4 tetratosylate, 10 μM)
C[n+]1ccc(-c2c3nc(c(-c4cc[n+](C)cc4)c4ccc([nH]4)c(-c4cc[n+](C)cc4)c4nc(c(-c5cc[n+](C)cc5)c5ccc2[nH]5)C=C4)C=C3)cc1	(1.87 ± 0.19) × 10^6 M^−1	(5.62 ± 0.71) × 10^7 M^−1	yes	85.96% and 72.28%	
Cc1ccc(S(=O)(=O)O)cc1					yes
